Reference: patent publication US20250346569A1, “NEW DERIVATIVES FOR TREATING TRPM3 MEDIATED DISORDERS” (Katholieke Universiteit Leuven, priority 2022, published 2025)

molecular target: T1, mouse TRPM3α2 (mTRPM3) ion channel (Mus musculus, UniProt J9SQF3); assay: Monitoring the TRPM3 ion channel driven Ca2+ uptake (Fluo-4 AM assay); type: cell-based; conditions: TRPM3 overexpressing flip-in HEK293 cells, channel stimulated with Pregnenolone sulfate (PS) 50 μM
T1 construct: expressed in transfected cells; host or cells: flip-in HEK293
Procedure: Monitoring the TRPM3 ion channel driven Ca^2+ uptake.
In order to monitor the inhibition of the mouse TRPM3α2 (mTRPM3) ion channel by the compounds of the invention, a cellular system making use of an mTRPM3alpha2 or hTRPM3 overexpressing cell line (flip-in HEK293) was used. The TRPM3 channel was stimulated/opened with Pregnenolone sulfate (PS) (50 μM) which results in Ca^2+ influx.
For mTRPM3, the intracellular Ca^2+ was measured with a Calcium responsive dye, Fluor-4 AM ester (Invitrogen). Cells were cultured until a confluence of 80-90%, washed with Versene (Invitrogen) and detached from the surface by a short incubation with 0.05% Trypsin (Invitrogen). The trypsination process was stopped by the addition of complete cell culture medium (DMEM, glutamax,10% FCS,NEAA,Pen-Strep). Cells were collected and resuspended in Krebs buffer without Calcium at RT.
Prior the cell seeding (±2000 cells/well into a black, 384 well plate (Greiner)) the diluted compound was added in the assay plate, together with the PS dissolved in Krebs buffer containing Calcium. […] Directly after cell addition the plates were read on an Envision fluorescence reader (Perkin Elmer) by an Excitation of 485 nm and emission at 535 nm.
Channel inhibition was calculated compared to a non-PS stimulated control versus a condition stimulated with PS (50 μM) with vehicle. The ability of the compounds of the invention to inhibit this activity was determined as: Percentage inhibition=[1−((RFU determined for sample with test compound present−RFU determined for sample with positive control inhibitor) divided by (RFU determined in the presence of vehicle−RFU determined for sample with positive control inhibitor))]*100.
The activities of the Example compounds tested are depicted in the table below. The activity ranges A, B and C refer to IC50 values in the Fluo-4 AM assay as follows: “A”: IC50<1 μM; “B”: 1 μM≤IC50≤20 μM and “C”: IC50>20 μM

T1 sequence (J9SQF3 1-1709 isoform J9SQF3-12): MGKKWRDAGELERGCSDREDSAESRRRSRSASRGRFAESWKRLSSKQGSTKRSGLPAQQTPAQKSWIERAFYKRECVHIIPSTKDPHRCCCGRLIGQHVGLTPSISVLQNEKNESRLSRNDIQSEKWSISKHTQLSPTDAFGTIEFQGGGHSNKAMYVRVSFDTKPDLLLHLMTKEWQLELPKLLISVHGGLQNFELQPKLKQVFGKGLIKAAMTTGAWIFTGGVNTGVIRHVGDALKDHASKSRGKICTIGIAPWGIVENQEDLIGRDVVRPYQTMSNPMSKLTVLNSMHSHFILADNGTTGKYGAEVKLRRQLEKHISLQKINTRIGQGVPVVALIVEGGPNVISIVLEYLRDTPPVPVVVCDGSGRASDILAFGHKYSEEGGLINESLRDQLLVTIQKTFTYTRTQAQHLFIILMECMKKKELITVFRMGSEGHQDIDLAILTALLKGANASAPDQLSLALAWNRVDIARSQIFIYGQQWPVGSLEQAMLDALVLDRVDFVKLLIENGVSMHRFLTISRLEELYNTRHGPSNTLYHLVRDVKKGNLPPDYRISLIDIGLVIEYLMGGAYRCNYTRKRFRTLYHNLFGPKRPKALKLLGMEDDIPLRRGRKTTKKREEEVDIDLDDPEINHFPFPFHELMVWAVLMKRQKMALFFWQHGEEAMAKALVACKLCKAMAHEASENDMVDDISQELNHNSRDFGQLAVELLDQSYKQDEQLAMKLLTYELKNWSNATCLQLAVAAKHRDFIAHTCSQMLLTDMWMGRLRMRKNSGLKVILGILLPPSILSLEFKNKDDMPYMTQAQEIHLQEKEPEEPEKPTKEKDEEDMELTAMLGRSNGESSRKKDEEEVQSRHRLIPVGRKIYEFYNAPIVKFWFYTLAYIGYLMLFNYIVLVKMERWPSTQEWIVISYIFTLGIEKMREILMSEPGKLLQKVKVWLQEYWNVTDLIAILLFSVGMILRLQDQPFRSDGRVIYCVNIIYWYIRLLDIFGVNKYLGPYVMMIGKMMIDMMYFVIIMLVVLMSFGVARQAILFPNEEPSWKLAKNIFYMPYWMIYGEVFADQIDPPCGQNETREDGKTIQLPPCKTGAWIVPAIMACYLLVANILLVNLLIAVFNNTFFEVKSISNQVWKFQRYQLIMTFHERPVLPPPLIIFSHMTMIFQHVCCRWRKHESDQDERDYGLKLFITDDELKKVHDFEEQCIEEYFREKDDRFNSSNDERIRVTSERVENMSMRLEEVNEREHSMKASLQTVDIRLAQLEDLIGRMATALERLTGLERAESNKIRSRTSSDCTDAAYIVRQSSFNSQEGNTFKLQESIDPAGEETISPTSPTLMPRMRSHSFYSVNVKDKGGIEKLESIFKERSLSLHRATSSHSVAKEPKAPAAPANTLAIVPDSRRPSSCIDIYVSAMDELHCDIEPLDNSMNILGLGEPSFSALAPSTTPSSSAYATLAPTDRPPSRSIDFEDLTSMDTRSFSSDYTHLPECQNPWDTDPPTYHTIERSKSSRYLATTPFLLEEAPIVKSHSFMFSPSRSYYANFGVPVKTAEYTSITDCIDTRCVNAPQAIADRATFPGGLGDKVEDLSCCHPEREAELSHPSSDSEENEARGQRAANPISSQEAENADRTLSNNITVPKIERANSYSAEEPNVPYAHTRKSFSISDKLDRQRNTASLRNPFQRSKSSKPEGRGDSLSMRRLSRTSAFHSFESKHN

| Compound | IC50 |
| --- | --- |
| Cc1ncc(COc2ccc3sc(C)c(C(=O)NC(C)(CO)C(N)=O)c3c2)s1 (single isomer, unassigned) [Cpd 019 - En2, 3-hydroxy-2-methyl-2-({2-methyl-5-[(2-methyl-1,3-thiazol-5-yl)methoxy]-1-benzothiophen-3-yl}formamido)propanamide] | < 1000 nM |
| CC(C)(CNC(=O)c1c(C(F)F)sc2ccc(OCc3ccccc3)cc12)N1CCOCC1 [Cpd 013, 5-(benzyloxy)-2-(difluoromethyl)-N-[2-methyl-2-(morpholin-4-yl)propyl]-1-benzothiophene-3-carboxamide] | 1000 to 20000 nM |
| Cc1ncc(COc2ccc3sc(C)c(C(=O)N[C@@H](CO)C(N)=O)c3c2)s1 [Cpd 016, (2S)-3-hydroxy-2-({2-methyl-5-[(2-methyl-1,3-thiazol-5-yl)methoxy]-1-benzothiophen-3-yl}formamido)propanamide] | < 1000 nM |
| Cc1sc2ccc(OCc3ccccc3F)cc2c1C(=O)NC1CCNCC1(F)F (single isomer, unassigned) [Cpd 095 - En1, N-(3,3-difluoropiperidin-4-yl)-5-[(2-fluorophenyl)methoxy]-2-methyl-1-benzothiophene-3-carboxamide] | 1000 to 20000 nM |
| CNC(=O)C(C)(CO)NC(=O)c1c(C)sc2ccc(OCc3cnc(C)s3)cc12 (single isomer, unassigned) [Cpd 132 - En1, 3-hydroxy-N,2-dimethyl-2-({2-methyl-5-[(2-methyl-1,3-thiazol-5-yl)methoxy]-1-benzothiophen-3-yl}formamido)propanamide] | < 1000 nM |
| Cc1ncc(COc2ccc3sc(C)c(C(=O)NC4(CO)COC4)c3c2)s1 [Cpd 025, N-[3-(hydroxymethyl)oxetan-3-yl]-2-methyl-5-[(2-methyl-1,3-thiazol-5-yl)methoxy]-1-benzothiophene-3-carboxamide] | < 1000 nM |
| Cc1sc2ccc(OCc3cccnc3C(F)(F)F)cc2c1C(=O)NC1CCN(C)C1 (centres unmarked) [Cpd 125, 2-methyl-N-(1-methylpyrrolidin-3-yl)-5-{[2-(trifluoromethyl)pyridin-3-yl]methoxy}-1-benzothiophene-3-carboxamide] | < 1000 nM |
| Cc1ncc(COc2ccc3sc(C)c(C(=O)NC(C)(C)C(N)=O)c3c2)s1 [Cpd 018, 2-methyl-2-({2-methyl-5-[(2-methyl-1,3-thiazol-5-yl)methoxy]-1-benzothiophen-3-yl}formamido)propanamide] | < 1000 nM |
| Cc1sc2ccc(OCc3ccccc3F)cc2c1C(=O)N[C@H]1CCN(CCO)C1=O [Cpd 059, 5-[(2-fluorophenyl)methoxy]-N-[(3S)-1-(2-hydroxyethyl)-2-oxopyrrolidin-3-yl]-2-methyl-1-benzothiophene-3-carboxamide] | < 1000 nM |
| Cc1ncsc1COc1ccc2sc(C)c(C(=O)N[C@H]3CCN(CCO)C3=O)c2c1 [Cpd 030, N-[(3S)-1-(2-hydroxyethyl)-2-oxopyrrolidin-3-yl]-2-methyl-5-[(4-methyl-1,3-thiazol-5-yl)methoxy]-1-benzothiophene-3-carboxamide] | < 1000 nM |
| Cc1sc2ccc(OCc3ccccc3)cc2c1C(=O)NCc1cccc(O)n1 [Cpd 104, 5-(benzyloxy)-N-[(6-hydroxypyridin-2-yl)methyl]-2-methyl-1-benzothiophene-3-carboxamide] | > 20000 nM |
| Cc1ncsc1COc1ccc2sc(C)c(C(=O)NC(C)(CO)CO)c2c1 [Cpd 032, N-(1,3-dihydroxy-2-methylpropan-2-yl)-2-methyl-5-[(4-methyl-1,3-thiazol-5-yl)methoxy]-1-benzothiophene-3-carboxamide] | < 1000 nM |
| Cc1ncsc1COc1ccc2sc(C)c(C(=O)NCC(C)(C)N3CCOCC3)c2c1 [Cpd 044, 2-methyl-5-[(4-methyl-1,3-thiazol-5-yl)methoxy]-N-[2-methyl-2-(morpholin-4-yl)propyl]-1-benzothiophene-3-carboxamide] | < 1000 nM |
| Cc1sc2ccc(OCc3cccnc3C(F)(F)F)cc2c1C(=O)N[C@@H](C)C(N)=O [Cpd 009, (2S)-2-[(2-methyl-5-{[2-(trifluoromethyl)pyridin-3-yl]methoxy}-1-benzothiophen-3-yl)formamido]propanamide] | < 1000 nM |
| CC(C)(O)CNC(=O)c1c(C(F)F)sc2ccc(OCc3ccccc3)cc12 [Cpd 014, 5-(benzyloxy)-2-(difluoromethyl)-N-(2-hydroxy-2-methylpropyl)-1-benzothiophene-3-carboxamide] | > 20000 nM |
| Cc1sc2ccc(OCc3ccccc3F)cc2c1C(=O)N[C@H](CO)C(N)=O [Cpd 056, (2R)-2-({5-[(2-fluorophenyl)methoxy]-2-methyl-1-benzothiophen-3-yl}formamido)-3-hydroxypropanamide] | < 1000 nM |

Results, then the compound that gave them:

| IC50 | Compound |
| --- | --- |
| 1000 to 20000 nM | Cc1sc2ccc(OCc3ccccc3)cc2c1C(=O)NCC1CCC(=O)N1 (centres unmarked) [Cpd 102, 5-(benzyloxy)-2-methyl-N-[(5-oxopyrrolidin-2-yl)methyl]-1-benzothiophene-3-carboxamide] |
| < 1000 nM | Cc1ncsc1COc1ccc2sc(C)c(C(=O)NC3CCOC3)c2c1 (centres unmarked) [Cpd 043, 2-methyl-5-[(4-methyl-1,3-thiazol-5-yl)methoxy]-N-(oxolan-3-yl)-1-benzothiophene-3-carboxamide] |
| > 20000 nM | O=C(NC1(CO)CCOCC1)c1c(C(F)F)sc2ccc(OCc3ccccc3)cc12 [Cpd 152, 5-(benzyloxy)-2-(difluoromethyl)-N-[4-(hydroxymethyl)oxan-4-yl]-1-benzothiophene-3-carboxamide] |
| 1000 to 20000 nM | CN(C)CCNC(=O)c1c(C(F)F)sc2ccc(OCc3ccccc3)cc12 [Cpd 116, 5-(benzyloxy)-2-(difluoromethyl)-N-[2-(dimethylamino)ethyl]-1-benzothiophene-3-carboxamide] |
| 1000 to 20000 nM | Cc1sc2ccc(OCc3ccccc3)cc2c1C(=O)NC1CCN(C)CC1 [Cpd 127, 5-(benzyloxy)-2-methyl-N-(1-methylpiperidin-4-yl)-1-benzothiophene-3-carboxamide] |
| < 1000 nM | COc1ncccc1COc1ccc2sc(C)c(C(=O)N[C@@H](C)C(N)=O)c2c1 [Cpd 138, (2S)-2-({5-[(2-methoxypyridin-3-yl)methoxy]-2-methyl-1-benzothiophen-3-yl}formamido)propanamide] |
| < 1000 nM | Cc1nc(COc2ccc3sc(C)c(C(=O)NC(C)(CO)C(N)=O)c3c2)cs1 (single isomer, unassigned) [Cpd 015 - En1, 3-hydroxy-2-methyl-2-({2-methyl-5-[(2-methyl-1,3-thiazol-4-yl)methoxy]-1-benzothiophen-3-yl}formamido)propanamide] |
| < 1000 nM | Cc1sc2ccc(OCc3cccnc3C(F)(F)F)cc2c1C(=O)N[C@H](C)C(N)=O [Cpd 004, (2R)-2-[(2-methyl-5-{[2-(trifluoromethyl)pyridin-3-yl]methoxy}-1-benzothiophen-3-yl)formamido]propanamide] |
| < 1000 nM | Cc1sc2ccc(OCc3cccnc3C(F)(F)F)cc2c1C(=O)N[C@H](CO)C(N)=O [Cpd 058, (2R)-3-hydroxy-2-[(2-methyl-5-{[2-(trifluoromethyl)pyridin-3-yl]methoxy}-1-benzothiophen-3-yl)formamido]propanamide] |
| < 1000 nM | Cc1sc2ccc(OCc3cccnc3C(F)(F)F)cc2c1C(=O)NC(C)(C)C(N)=O [Cpd 065, 2-methyl-2-[(2-methyl-5-{[2-(trifluoromethyl)pyridin-3-yl]methoxy}-1-benzothiophen-3-yl)formamido]propanamide] |
| < 1000 nM | Cc1sc2ccc(OCc3ccccn3)cc2c1C(=O)N[C@@H](C)C(N)=O [Cpd 008, (2S)-2-({2-methyl-5-[(pyridin-2-yl)methoxy]-1-benzothiophen-3-yl}formamido)propanamide] |
| < 1000 nM | Cc1sc2ccc(OCc3ccccn3)cc2c1C(=O)N[C@H](CO)C(N)=O [Cpd 057, (2R)-3-hydroxy-2-({2-methyl-5-[(pyridin-2-yl)methoxy]-1-benzothiophen-3-yl}formamido)propanamide] |
| 1000 to 20000 nM | Cn1ccc(NC(=O)c2c(C(F)F)sc3ccc(OCc4ccccc4)cc23)n1 [Cpd 131, 5-(benzyloxy)-2-(difluoromethyl)-N-(1-methyl-1H-pyrazol-3-yl)-1-benzothiophene-3-carboxamide] |
| < 1000 nM | Cc1sc2ccc(OCc3ccccc3)cc2c1C(=O)NC1CN(C)CC1(F)F (centres unmarked) [Cpd 120, 5-(benzyloxy)-N-(4,4-difluoro-1-methylpyrrolidin-3-yl)-2-methyl-1-benzothiophene-3-carboxamide] |
| < 1000 nM | Cc1sc2ccc(OCc3cccnc3C(F)(F)F)cc2c1C(=O)NCc1cccc(O)n1 [Cpd 105, N-[(6-hydroxypyridin-2-yl)methyl]-2-methyl-5-{[2-(trifluoromethyl)pyridin-3-yl]methoxy}-1-benzothiophene-3-carboxamide] |
| < 1000 nM | Cc1ncsc1COc1ccc2sc(C)c(C(=O)NCC3CCC(=O)N3)c2c1 (centres unmarked) [Cpd 046, 2-methyl-5-[(4-methyl-1,3-thiazol-5-yl)methoxy]-N-[(5-oxopyrrolidin-2-yl)methyl]-1-benzothiophene-3-carboxamide] |
